Assay results taken from the supplement of paper PMC13380429.
± gives the standard deviation of the averaged measurements.

Legend:
Details in all cases: 72 h
Caco-2 [1] = test: cell viability relative to DMSO; higher = less toxic
Calu-3 [2] = test: as above
HepG2 [3] = test: as above
U2OS [4] = test: as above
Vero E6 [5] = test: as above
Caco-2 [6] = test: relative viability EC50 (midpoint between 100% and the lowest measured viability); higher = less toxic
Calu-3 [7] = test: as above
HepG2 [8] = test: as above
U2OS [9] = test: as above
Vero E6 [10] = test: as above
Caco-2 [11] = test: drug sensitivity score (DSS) for viability; higher = more toxic; extreme values may be limits of the assay
Calu-3 [12] = test: as above
HepG2 [13] = test: as above
U2OS [14] = test: as above
Vero E6 [15] = test: as above

| Structure (SMILES) | cell viability (Caco-2 [1]; 1 nM) | cell viability (Caco-2 [1]; 10 nM) | cell viability (Caco-2 [1]; 100 nM) | cell viability (Caco-2 [1]; 1000 nM) | cell viability (Caco-2 [1]; 10000 nM) | cell viability (Calu-3 [2]; 1 nM) | cell viability (Calu-3 [2]; 10 nM) | cell viability (Calu-3 [2]; 100 nM) | cell viability (Calu-3 [2]; 1000 nM) | cell viability (Calu-3 [2]; 10000 nM) | cell viability (HepG2 [3]; 1 nM) | cell viability (HepG2 [3]; 10 nM) | cell viability (HepG2 [3]; 100 nM) | cell viability (HepG2 [3]; 1000 nM) | cell viability (HepG2 [3]; 10000 nM) | cell viability (U2OS [4]; 1 nM) | cell viability (U2OS [4]; 10 nM) | cell viability (U2OS [4]; 100 nM) | cell viability (U2OS [4]; 1000 nM) | cell viability (U2OS [4]; 10000 nM) | cell viability (Vero E6 [5]; 1 nM) | cell viability (Vero E6 [5]; 10 nM) | cell viability (Vero E6 [5]; 100 nM) | cell viability (Vero E6 [5]; 1000 nM) | cell viability (Vero E6 [5]; 10000 nM) | relative viability EC50 (Caco-2 [6]) | relative viability EC50 (Calu-3 [7]) | relative viability EC50 (HepG2 [8]) | relative viability EC50 (U2OS [9]) | relative viability EC50 (Vero E6 [10]) | drug sensitivity score (Caco-2 [11]) | drug sensitivity score (Calu-3 [12]) | drug sensitivity score (HepG2 [13]) | drug sensitivity score (U2OS [14]) | drug sensitivity score (Vero E6 [15]) |
| --- | --- | --- | --- | --- | --- | --- | --- | --- | --- | --- | --- | --- | --- | --- | --- | --- | --- | --- | --- | --- | --- | --- | --- | --- | --- | --- | --- | --- | --- | --- | --- | --- | --- | --- | --- |
| Cc1ccc(S(=O)(=O)OCC(=O)Nc2ccc(C(=O)O)c(O)c2)cc1 [STAT3-inhibitor-VI] | 101% | 93.1% | 90.6% | 90.8% | 99.9% | 102% | 95.1% | 102% | 96.2% | 101% | 102% | 104% | 96.2% | 92.1% | 95.6% | 103% | 96% | 101% | 104% | 99% | 98.3% | 97.6% | 94.1% | 98.9% | 89.8% | > 10 µM | > 10 µM | > 10 µM | > 10 µM | > 10 µM | 0 | 0 | 0 | 0 | 0 |
| O=C(O)c1ccc(CN2CCC(CN[C@@H]3C[C@H]3c3ccccc3)CC2)cc1 | 101% | 108% | 94% | 105% | 102% | 89.3% | 101% | 94.7% | 102% | 103% | 105% | 93.8% | 104% | 92.5% | 92% | 95.9% | 96.8% | 95.8% | 98.3% | 96% | 100% | 103% | 99.2% | 90.9% | 95.2% | > 10 µM | > 10 µM | > 10 µM | > 10 µM | > 10 µM | 0 | 0 | 0 | 0 | 0 |
| C[C@@]1(O)[C@H](O)[C@@H](CO)O[C@H]1n1cnc2c(NC3CCCC3)nc(Cl)nc21 [2'-MeCCPA] | 95.9% | 100% | 102% | 105% | 103% | 93.9% | 98% | 96.5% | 100% | 91.4% | 95.6% | 95.5% | 101% | 97.7% | 96.8% | 96.9% | 100% | 96.8% | 99.6% | 100% | 105% | 98.7% | 100% | 98.9% | 102% | > 10 µM | > 10 µM | > 10 µM | > 10 µM | > 10 µM | 0 | 0 | 0 | 0 | 0 |
| N[C@H]1CCN(O)C1=O [HA-966-(S)-(-)] | 103 ± 1.2% | 86.4 ± 7.8% | 106 ± 5.9% | 96 ± 3.5% | 102 ± 5.2% | 104 ± 4.8% | 95.8 ± 4.6% | 99.6 ± 2.1% | 94.7 ± 7.3% | 97.6 ± 0.71% | 93.2% | 107% | 100% | 104% | 106% | 97.6 ± 2.7% | 96.8 ± 2% | 98.5 ± 3.2% | 96.9 ± 0.71% | 97.2 ± 3.2% | 96.8 ± 9.3% | 95.3% | 93.35 ± 0.35% | 97.6 ± 3.4% | 102 ± 4.7% | > 10 µM | > 10 µM | > 10 µM | > 10 µM | > 10 µM | 0 | 0 | 0 | 0 | 0 |
| CO[C@@H]1[C@H](O)[C@@H](CO)O[C@H]1n1cnc2c(NC3CCCCC3)ncnc21 [SDZ-WAG-994] | 84.7% | 95.4% | 90% | 103% | 99.5% | 88.5% | 89.5% | 83.3% | 88.3% | 109% | 88% | 93.4% | 104% | 93% | 101% | 93.6% | 100% | 97% | 103% | 108% | 99.5% | 94.7% | 97.1% | 95.2% | 109% | > 10 µM | > 10 µM | > 10 µM | > 10 µM | > 10 µM | 0 | 0 | 0 | 0 | 0 |
| Cc1cc(-c2ccc(CC(=O)Nc3ccc(-c4cccnc4)cc3)cc2)ccn1 [wnt-c59] | 104% | 94.8% | 109% | 96.1% | 85% | 106% | 106% | 101% | 98% | 83.6% | 96.3% | 110% | 94.5% | 103% | 81.8% | 93.9% | 93.6% | 94.8% | 92.9% | 91.3% | 97.1% | 101% | 100% | 99.5% | 102% | > 10 µM | > 10 µM | > 10 µM | > 10 µM | > 10 µM | 0.6 | 0.5 | 0.3 | 0 | 0 |
| C[C@@H]1COCCN1c1cc(C2(S(C)(=O)=O)CC2)nc(-c2cccc3[nH]ccc23)n1 [AZ20] | 88.1% | 96.3% | 89.5% | 84.1% | 23.1% | 89.4% | 97% | 91.8% | 82.3% | 34.6% | 110% | 110% | 95.9% | 65.6% | 31.8% | 97.4% | 101% | 95.9% | 94.3% | 9.3% | 102% | 98.2% | 98.5% | 85.4% | 40% | 1.71 µM | 1.57 µM | 0.973 µM | 2.66 µM | 1.57 µM | 6.8 | 6 | 7.8 | 5.9 | 5.6 |
| Clc1ccc([C@]23CNC[C@H]2C3)cc1Cl [amitifadine] | 99.2% | 92% | 103% | 87.3% | 95.8% | 106% | 90.7% | 101% | 105% | 97.9% | 89.5% | 104% | 98.2% | 98.6% | 94.9% | 100% | 97.6% | 103% | 98.4% | 104% | 101% | 105% | 100% | 103% | 99% | > 10 µM | > 10 µM | > 10 µM | > 10 µM | > 10 µM | 0 | 0 | 0 | 0 | 0 |
| CCOC(=O)[C@@H](C)Oc1cccc2c(=O)n(CC(=O)Nc3ccc4c(c3)OCCO4)ccc12 | 90.5% | 113% | 95.5% | 101% | 83.5% | 92.5% | 88.6% | 80.8% | 95.5% | 89.8% | 106% | 92.7% | 98.6% | 91.4% | 102% | 98.3% | 101% | 95.8% | 105% | 88.9% | 101% | 99.4% | 99% | 98.5% | 99.1% | > 10 µM | > 10 µM | > 10 µM | > 10 µM | > 10 µM | 0.3 | 0 | 0 | 0 | 0 |
| CC(=O)NCCc1c[nH]c2ccccc12 [N-acetyltryptamine] | 93.5% | 94.7% | 99.4% | 96.5% | 102% | 92.8% | 96% | 94.3% | 105% | 99.4% | 105% | 95.7% | 97.1% | 103% | 104% | 95.4% | 102% | 94.5% | 99.3% | 101% | 97% | 92.4% | 99% | 91.4% | 107% | > 10 µM | > 10 µM | > 10 µM | > 10 µM | > 10 µM | 0 | 0 | 0 | 0 | 0 |
| Cc1cc(OCCN2CCOCC2)nn1-c1ccc2ccccc2c1 [API-001] | 93.2% | 91.8% | 96.4% | 94.1% | 92% | 98.5% | 83.4% | 107% | 115% | 96.7% | 102% | 111% | 89.9% | 102% | 103% | 98.2% | 98.5% | 102% | 101% | 102% | 96.3% | 96% | 91.9% | 94.8% | 103% | > 10 µM | > 10 µM | > 10 µM | > 10 µM | > 10 µM | 0 | 0 | 0 | 0 | 0 |
